“And” between values parts separate entries of the source, which are not always exact repeats. Equal values may be shown once.
Assays:
[1] = recent human trials (Shimosaka et al.); cited from earlier work
P. yoelii sporozoites [2] = conditions: mice, administered two days before challenge with Plasmodium sporozoites (Gonzalez-Aseguinolaza 2000); cited from earlier work
P. yoelii sporozoites [3] = test: malaria liver stage development in mice challenged with P. yoelii sporozoites, real-time RT-PCR of 18S rRNA in liver; type: in vivo; conditions: for suppression of P. yoelii liver stages in deficient mice: mice deficient in CD1d, Jα18, IFN-γ or IFN-γ receptor; for suppression of P. yoelii liver stages in deficient mice / malaria liver stage development: 2 μg intraperitoneally two days before challenge; for malaria liver stage development: compared to untreated control; for dose of equal anti-malaria activity (dose response): intraperitoneally three days before challenge
Description: (§1) P. yoelii (17NXL strain) was maintained by alternate cyclic passages in Anopheles stephensi mosquitoes and Swiss Webster mice. Sporozoites obtained from dissected salivary glands of infected mosquitoes 2 weeks after their infective blood were used for challenge of the mice. Challenge of mice to determine the development of liver-stage malaria infection was performed by an intravenous injection of 10,000 viable sporozoites into the tail vein. The outcome of the challenge was determined 40-42 hours later by measuring the parasite burden in the livers of the mice using a quantitative real-time RT-PCR method, as taught in Bruna-Romero et al., Int. J. Parasitol. 31, 1449-1502, 2001. Challenge of mice toe determine the development of blood stage malaria infection was performed by an intravenous injection of 75 viable sporozoites into the tail vein. Starting four days after challenge, daily peripheral blood smears were obtained from each mouse and examined microscopically for the presence of blood stage parasites until day 17 post-challenge. Mice were considered positive for parasitemia if at least one blood stage parasite was observed during the time of examination.
The degree of liver stage development in challenged mice was determined by quantifying the amount of P. yoelii-specific 18S rRNA molecules in the livers of the mice by way of the real-time RT-PCR technique of Bruna-Romero et al. A 2 μg sample of total RNA prepared from the livers of challenged mice was reverse-transcribed, and an aliquot of the resulting cDNA (133 ng) was used for real-time PCR amplification of P. yoelii 18S rRNA sequences. This amplification was performed in a GeneAmp® 5700 Sequence Detection System (PE Applied Biosystems, Foster City, Calif.). For this purpose, primers 5′-[…]-3′ (SEQ. ID NO: 1) (54 nM) and 5′-[…]-3′ (SEQ. ID NO: 2) (60 nm) were used, together with the dsDNA-specific dye SYBR Green I incorporated into the PCR reaction buffer (PE Biosystems, Foster City, Calif.) in order to detect the PCR product generated. The temperature profile of the reaction was 95° C. for 10 minutes followed by 35 cycles of denaturation of 95° C. for 15 seconds and annealing/extension at 60° C. for 1 minute.

liver enzyme activities = conditions: mice, immediately after treatment (Osman et al., 2000); cited from earlier work
IL-12p70 = test: serum IL-12 after treatment, sandwich ELISA; type: in vivo; conditions: wild type BALB/c mice, 1 μg intravenously
Description: (§2) The serum concentrations of IFN-γ and IL-4 were measured 2, 6, 12, 24, 48, and 72 hours after treatment with α-GalCer, α-C-GalCer, or nothing by way of a sandwich ELISA (e-bioscience, San Diego). The serum concentrations of IL-12p70 were also measured at 2, 6, 12, 24, 48 and 72 hours after treatment by way of a sandwich ELISA (Pharmingen, San Diego).

B16 melanoma cells = test: melanoma lung metastases, count of metastatic nodules; type: in vivo, C57/BL6 mice; conditions: for dose of equal anti-cancer response (lung metastatic nodules): C57BL/6 mice, intravenously two days before challenge with 5×10^4 B16 cells, lungs checked two weeks later
Description: The development of melanoma lung metastases in C57/BL6 mice was determined by first challenging mice intravenously with 5×10^4 syngeneic B16 melanoma cells suspended in DMEM supplemented with 10% FCS. Two weeks after challenge the mice were sacrificed, the lungs removed, and the number of metastatic nodules counted, as described in Fujii et al., Natl. Immunol. 3, 867-874 (2002).

P. yoelii sporozoites [4] = test: sporozoite-induced blood stage malaria infection, daily blood smears; type: in vivo; conditions: wild type BALB/c mice, 100 ng intraperitoneally three days before challenge
Description: as §1

IFN-γ = test: serum IFN-γ after treatment, sandwich ELISA; type: in vivo; conditions: wild type BALB/c mice, 1 μg intravenously
Description: as §2

IL-4 = test: serum IL-4 after treatment, sandwich ELISA; type: in vivo; conditions: wild type BALB/c mice, 1 μg intravenously
Description: as §2

[5] = independently of dosage (Nakagawa et al., 1998); cited from earlier work
[6] = 100 ng intraperitoneally four days before challenge

Row | SMILES | anti-malaria activity in IL-12 deficient mice (P. yoelii sporozoites [3]; [6]) | suppression of P. yoelii liver stages in deficient mice (P. yoelii sporozoites [3]) | malaria liver stage development (P. yoelii sporozoites [3]; wild type BALB/c mice) | dose of equal anti-malaria activity (dose response) (P. yoelii sporozoites [3]; wild type BALB/c mice) [µg] | time of peak serum IL-12 concentration after treatment (IL-12p70) [h] | serum IL-12 levels 12 hours after treatment (IL-12p70) | dose of equal anti-cancer response (lung metastatic nodules) (B16 melanoma cells) [ng] | mice completely protected from blood stage malaria (P. yoelii sporozoites [4]) | time at which detectable serum IFN-γ levels start (IFN-γ) [h] | time of peak serum IL-4 concentration after treatment (IL-4) [h] | other results
1 | CCCCCCCCCCCCCCCCCCCCCCCCCC(=O)N[C@@H](CO[C@H]1O[C@H](CO)[C@H](O)[C@H](O)[C@H]1O)[C@H](O)[C@H](O)CCCCCCCCCCCCCC [α-GalCer, (2S,3S,4R)-1-O-(α-D-galactopyranosyl)-2-(N-hexacosanoylamino)-1,3,4-octadecanetriol] | no difference in anti-malaria activity | unable to suppress | virtually no liver stage development | 1 | 6 | undetectable | 100 | 0 of 10 | 6 | 2 | cytotoxicity in humans [1]: not cytotoxic; development of malaria liver stages (P. yoelii sporozoites [2]): suppressed development of malaria liver stages; liver enzyme activities after treatment (liver enzyme activities): transient elevation of liver enzyme activities; time of peak serum IFN-γ post-treatment (IFN-γ): 12 h and 24 h; peak serum IL-4 concentration relative to α-C-GalCer (IL-4; 2 hours): roughly 3 times; toxicity in rodents and monkeys [5]: does not induce toxicity
2 | CCCCCCCCCCCCCCCCCCCCCCCCCC(=O)N[C@@H](CC[C@H]1O[C@H](CO)[C@H](O)[C@H](O)[C@H]1O)[C@H](O)[C@H](O)CCCCCCCCCCCCCC [α-C-GalCer, 3′S,4′S,5′R-3′-N-hexacosanoyl-4′,5′-dihydroxynonadecyl-α-C-D-galactopyranoside] | no difference in anti-malaria activity | unable to suppress | virtually no liver stage development | 0.001 | 6 | detectable | 1 | 9 of 10 | 6 | 2 | potency against malaria relative to α-GalCer (P. yoelii sporozoites [3]; malaria disease model, mice): 1000 fold; extension of anti-malaria effect (kinetic effect) (P. yoelii sporozoites [3]; wild type BALB/c mice, 100 ng intraperitoneally at various times before challenge): up to three days longer than α-GalCer; suppression of liver stage development, wild type mice (P. yoelii sporozoites [3]; wild type mice, 100 ng intraperitoneally four days before challenge): suppressed liver stage development to a much greater degree than α-GalCer; peak serum IL-12 concentration relative to α-GalCer (IL-12p70; 6 hours): 2 times; potency against melanoma metastases relative to α-GalCer (B16 melanoma cells; melanoma metastases model, mice): 100 fold

Reference: patent US8252909B2, “Synthetic C-glycolipid and its use for treating cancer, infectious diseases, and autoimmune diseases” (New York University, priority 2002, dated 2012)
